Reference: patent US10351560B2, “Crystalline forms” (IDORSIA PHARMACEUTICALS LTD, priority 2015, dated 2019)
pIC50: −log10 of the molar value.

Columns and labels:
[1] = test system: primary cultured rat hepatocytes; assay: In vitro cytotoxicity in primary cultured rat hepatocytes; type: cell-based; details: for NoEC (no effect concentration) / LCC (lowest cytotoxic concentration): 24 h treatment, highest test concentration 300 μM; for NoEC (no effect concentration): morphology and LDH leakage; for LCC (lowest cytotoxic concentration): morphology grading ≥2 or ≥2-fold increase in LDH leakage
Description: In Vitro Cytotoxicity in Primary Cultured Rat Hepatocytes
Adult male Wistar rats were narcotized with sodium pentobarbital and hepatocytes were isolated according to a standard procedure, i.e. by in situ perfusion of the liver with a collagenase solution. The viability of the purified hepatocytes, checked by the trypan blue dye exclusion method was greater than 85%. The isolated hepatocytes were resuspended in standard Williams Medium E, without phenol red, supplemented (WME supp.) with transferrin (100 μg/ml), triiodothyronine (10 μg/ml), gentamicin (50 μg/ml), hydrocortison hemisuccinate (13.36 μg/ml), glucagon (5 μg/ml), HEPES (10 mM), inosin (10 μg/ml), insulin (10 μg/ml), streptomycin (100 μg/ml) and penicillin (100 U/ml) and 10% fetal bovine serum (FBS). The cells were plated in collagen-coated 24-well plates at an initial density of 2×10^5 cells/well. After 4 h for attachment to the culture-plates, the medium was aspirated and replaced by fresh WME supp. without FBS containing the test compounds and incubated for 24 h at 37° C. in a […] and 5% CO2 atmosphere. For each experiment, i.e., with each batch of hepatocytes, treatments with the test compounds were done in quadriplicate. Quadriplicate controls (treatment with the vehicle only) were also present on each culture plate.
Stock solutions of the test compounds were prepared in DMSO a few hours before treatment start. Appropriate dilutions of these stock solutions were added to the culture media just prior to the treatment in order to give final concentrations of 0, 3, 10, 30, 100 and 300 μM. The final concentration of the vehicle DMSO was 1% (v/v).
The morphology of the hepatocyte monolayers was monitored by light microscopy after 24 hours of exposure to the test compounds. Treatment related effects are described according to the following grading: • 0 No morphological alterations observed upon treatment when compared to the control cultures • 1-3 Treatment resulting in any morphological changes, e.g. intracellular granulation, vacuolization or cell death. Depending on the severity, these changes were regarded as slight (1), moderate (2) or strong (3). • K Treatment resulting in 100% dead cells and/or the complete detachment of the monolayer yielding a clear cell-free dish.
After 24 h treatment of the hepatocyte cultures, aliquots of culture medium were carefully collected and used for the analysis of lactate dehydrogenase (LDH) activity by spectrophotometry using the LDH cytotoxicity detection kit from Clontech (cat No. 630117, Mountain View, Calif., USA). For each experiment, additional cultures were used for the determination of total intracellular LDH activity at treatment start. For this purpose, 4 wells of cell culture per experiment were washed with cold saline before treatment start, sonicated in fresh medium and the homogenate was analyzed for total LDH activity. Enzyme activities in the culture media were assessed and expressed as percentage of the total activity present in the cultured hepatocytes at the beginning of the treatments.
The lowest cytotoxic concentration (LCC) and the no effect concentration (NoEC) are given for each compound, based on cell morphology and LDH leakage after 24 h treatment. LCC is defined as the lowest concentration of the test compound leading to a clear effect on the cultured rat hepatocytes (morphology grading ≥2 or ≥2-fold increase in LDH leakage). […]

[2] = test system: eosinophils (PGD2-induced shape change); assay: Eosinophil shape change assay with human plasma; type: cell-based; details: 50% human plasma, PGD2 100 nM activation, read-out: Antagonistic activity IC50
Experimental: Eosinophil Shape Change Assay with Human Plasma After obtaining informed consent, blood samples were drawn by venipuncture according to the protocol approved by the ethics committee of Basel, Switzerland. Polymorphonuclear leukocytes (containing eosinophils, basophils and neutrophils) were isolated using the Polymorphprep™ method (Axis-Shield). In brief, anticoagulated whole blood was layered onto a Polymorphprep gradient (density 1.113 g/ml) and centrifuged at 500 g for 30 min. The polymorphonuclear cell fraction was harvested and depleted for erythrocytes by hypotonic saline lysis. […]
Immediately after fixation with paraformaldehyde, the samples were analyzed by FACSCanto flow cytometer (BD Biosciences) and target cells were identified by their forward-scatter (FSC) and side-scatter (SSC) characteristics. […] Shape change responses, indicative of eosinophil activation, were quantified as the percent of cells with an increased forward-scatter.

[3] = Gravimetric vapour sorption (GVS) analysis; type: physicochemical; details: 25° C., mass change between 20% and 80% RH in first adsorption scan; mass change larger then 0.2% and smaller then 2%
Experimental: Gravimetric Vapour Sorption (GVS) Analysis
Measurements were performed on a multi sample instrument SPS-100n (Projekt Messtechnik, Ulm, Germany) operated in stepping mode at 25° C. The sample was allowed to equilibrate at 40% RH before starting a pre-defined humidity program (40-0-95-0-95-40% RH, steps of 5% ΔRH and with a maximal equilibration time of 24 hours per step were applied. About 20 to 30 mg of each sample was used. The hygroscopic classification is done according to the European Pharmacopeia Technical Guide (1999, page 86), e.g., slightly hygroscopic: increase in mass is less than 2% and equal to or greater than 0.2% mass/mass; hygroscopic: increase in mass is less than 15% and equal to or greater than 2% mass/mass. The mass change between 20% relative humidity and 80% relative humidity in the first adsorption scan is considered.

Row | Structure (SMILES) | NoEC (no effect concentration) [1] [µM] | LCC (lowest cytotoxic concentration) [1] [µM] | pIC50 [2] | properties in in-vitro cytotoxicity assay (in words) ([1]; summary statement) | Hygroscopicity [3]
1 | CN(c1ncc(Cl)cn1)[C@H]1CCc2c(c3cc(F)ccc3n2CC(=O)O)C1 [example 9 from WO 2011/117798, reference compound] | 30 | 300 |  |  | 
2 | CN(c1ncc(Cl)cn1)[C@H]1CCc2c(c3nc(F)ccc3n2CC(=O)O)C1 [COMPOUND, (S)-2-(8-((5-chloropyrimidin-2-yl)(methyl)amino)-2-fluoro-6,7,8,9-tetrahydro-5H-pyrido[3,2-b]indol-5-yl)acetic acid] | >300 | >300 | 8.51 | significantly improved properties | 
3 | CN(c1ncc(Cl)cn1)[C@H]1CCc2c(c3nc(F)ccc3n2CC(=O)O)C1 [COMPOUND in crystalline form 1, (S)-2-(8-((5-chloropyrimidin-2-yl)(methyl)amino)-2-fluoro-6,7,8,9-tetrahydro-5H-pyrido[3,2-b]indol-5-yl)acetic acid] |  |  |  |  | Slightly hygroscopic (mass change larger
